Where a name gives a salt, the structure may show the parent alone.
How the values were obtained:
[1] = molecular target: Recombinant human PARP (Homo sapiens, UniProt P09874); experiment: PARP enzyme activity inhibitory action; details: PARP inhibitory activity IC50 (nM), 3H-NAD, activated DNA, 25° C. 15 min; average of 3 measurements
Recombinant human PARP, sequence (P09874 whole entry): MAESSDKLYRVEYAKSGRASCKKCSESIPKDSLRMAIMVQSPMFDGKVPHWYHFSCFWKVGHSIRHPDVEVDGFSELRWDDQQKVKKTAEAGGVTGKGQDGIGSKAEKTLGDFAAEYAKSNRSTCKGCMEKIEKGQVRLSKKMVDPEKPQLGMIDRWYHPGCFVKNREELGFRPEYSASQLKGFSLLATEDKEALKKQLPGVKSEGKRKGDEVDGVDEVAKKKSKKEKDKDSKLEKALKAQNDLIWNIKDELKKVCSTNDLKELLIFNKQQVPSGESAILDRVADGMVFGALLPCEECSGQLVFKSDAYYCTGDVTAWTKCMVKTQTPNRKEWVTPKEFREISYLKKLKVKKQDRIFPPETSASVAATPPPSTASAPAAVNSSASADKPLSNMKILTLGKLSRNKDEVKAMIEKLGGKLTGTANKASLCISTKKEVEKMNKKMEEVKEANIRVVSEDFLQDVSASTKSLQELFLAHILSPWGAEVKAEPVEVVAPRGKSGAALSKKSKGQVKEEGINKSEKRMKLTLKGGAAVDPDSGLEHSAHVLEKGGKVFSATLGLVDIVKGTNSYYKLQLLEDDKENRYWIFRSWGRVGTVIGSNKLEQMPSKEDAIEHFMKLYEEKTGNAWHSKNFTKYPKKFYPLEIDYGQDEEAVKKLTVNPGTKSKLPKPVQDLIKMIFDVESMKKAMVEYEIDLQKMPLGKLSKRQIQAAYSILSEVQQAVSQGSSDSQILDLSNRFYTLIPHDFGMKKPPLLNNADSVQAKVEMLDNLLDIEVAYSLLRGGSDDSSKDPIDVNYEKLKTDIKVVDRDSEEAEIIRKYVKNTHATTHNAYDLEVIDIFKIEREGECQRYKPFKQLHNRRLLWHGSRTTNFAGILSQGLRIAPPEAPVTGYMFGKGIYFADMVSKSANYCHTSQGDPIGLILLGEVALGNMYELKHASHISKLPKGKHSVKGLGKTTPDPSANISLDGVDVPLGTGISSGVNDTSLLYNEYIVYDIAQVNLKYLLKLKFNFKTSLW
Protocol: After incubation at 25° C. for 15 min., the reaction was quenched with 20% trichloroacetic acid, and the resulting acid insoluble fraction was adsorbed on a GF/B filter. The filter was washed several times with 5% trichloroacetic acid, and the radiation dose on the filter was measured by liquid scintillation counter.

IC50 [1] [nM]	melting point	Structure (SMILES)
70	204 to 205 °C (dec.)	CN(C)C1CCN(c2cc3ccccc3c(=O)[nH]2)CC1 [Example 3, 3-(4-dimethylaminopiperidine-1-yl)-2H-isoquinolin-1-one]
42	–	CN1CCN(c2cc3ccccc3c(=O)[nH]2)CC1CO (stereo not shown) [Example 4, 3-(3-hydroxymethyl-4-methylpiperazin-1-yl)-2H-isoquinolin-1-one]
63	–	CN(C)C1CCN(c2cc3c(F)cccc3c(=O)[nH]2)CC1 [Example 28, 5-fluoro-3-(4-dimethylaminopiperidin-1-yl)-2H-isoquinolin-1-one]
65	210 to 211 °C (dec.)	CN(C)C1CCN(c2cc3c(Cl)cccc3c(=O)[nH]2)CC1 [Example 29, 5-chloro-3-(4-dimethylaminopiperidin-1-yl)-2H-isoquinolin-1-one]
47	–	CN(C)CCCc1cc2ccccc2c(=O)[nH]1 [Example 85, 3-(3-(dimethylamino)propyl)-2H-isoquinolin-1-one]
61	–	O=c1[nH]c(C2CN3CCC2CC3)cc2ccccc12 (stereo not shown) [Example 86, 3-(1-azabicyclo[2.2.2]octan-3-yl)-2H-isoquinolin-1-one]
39	222 to 223 °C	CN1CC=C(c2cc3ccccc3c(=O)[nH]2)CC1 [Example 190, 3-(1-methyl-1,2,3,6-tetrahydropyridin-4-yl)-2H-isoquinolin-1-one]
–	176 to 177 °C	O=c1[nH]c(N2CCN(Cc3ccccc3)C(CO)C2)cc2ccccc12 (stereo not shown) [Example 197, 3-(4-benzyl-3-hydroxymethylpiperazin-1-yl)-2H-isoquinolin-1-one]
–	> 200 °C (dec.)	O=c1[nH]c(N2CCC(N3CCCCC3)CC2)cc2ccccc12 [Example 200, 3-(4-piperidinopiperidin-1-yl)-2H-isoquinolin-1-one]
–	143 to 144 °C	O=c1[nH]c(N2CCCC(CO)C2)cc2ccccc12 (stereo not shown) [Example 201, 3-(3-hydroxymethylpiperidin-1-yl)-2H-isoquinolin-1-one]
–	187 to 188 °C	CN(C)C(=O)C1CCCN(c2cc3ccccc3c(=O)[nH]2)C1 (stereo not shown) [Example 202, 3-(3-(dimethylcarbamoyl)piperidin-1-yl)-2H-isoquinolin-1-one]
–	130 to 132 °C	CC(C)CN1CCN(c2cc3ccccc3c(=O)[nH]2)CC1CO (stereo not shown) [Example 203, 3-(3-hydroxymethyl-4-isobutylpiperazin-1-yl)-2H-isoquinolin-1-one]
–	141 to 143 °C	CN(C)CC1CCCN(c2cc3ccccc3c(=O)[nH]2)C1 (stereo not shown) [Example 206, 3-(3-(dimethylaminomethyl)piperidin-1-yl)-2H-isoquinolin-1-one]
57	117 to 119 °C	O=c1[nH]c(CCCN2CCCC2)cc2ccccc12 [Example 213, 3-(3-(pyrrolidin-1-yl)propyl)-2H-isoquinolin-1-one]
45	212 to 214 °C	CN1CCN(c2cc3c(Cl)cccc3c(=O)[nH]2)CC1CO (stereo not shown) [Example 214, 5-chloro-3-(3-hydroxymethyl-4-methylpiperazin-1-yl)-2H-isoquinolin-1-one]
63	–	O=c1[nH]c(CCN2CCCCC2)cc2ccccc12 [Example 219, 3-[2-(piperidin-1-yl)ethyl]-2H-isoquinolin-1-one]
77	–	O=c1[nH]c(CCN2CCCC2)cc2ccccc12 [Example 220, 3-[2-(pyrrolidin-1-yl)ethyl]-2H-isoquinolin-1-one]
5100	–	O=c1[nH]c(N2CCCCC2)cc2ccccc12 [Example Y-3010, reference compound]
79	–	O=c1[nH]c(N2CCN(CCO)CC2)cc2ccccc12 [Example Y-3079, reference compound]

The remaining lines, values behind:

Structure (SMILES)	IC50 [1] [nM]	melting point
Cc1cccc2c(=O)[nH]c([C@@H]3CCN4CCCC4C3)cc12 (single isomer, unassigned) [Example 225, 5-methyl-3-(octahydroindolizin-7-yl)-2H-isoquinolin-1-one ¾ water adduct]	26	–
Cc1cccc2c(=O)[nH]c([C@@H]3CCN4CCCC4C3)cc12 (single isomer, unassigned) [Example 226, 5-methyl-3-(octahydroindolizin-7-yl)-2H-isoquinolin-1-one ½ water adduct]	31	–
COc1cccc2c(=O)[nH]c(N3CCN(C)CC3)cc12 [Example 18, 5-methoxy-3-(4-methylpiperazin-1-yl)-2H-isoquinolin-1-one]	56	–
CN1CCN(c2cc3c(O)cccc3c(=O)[nH]2)CC1 [Example 19, 5-hydroxy-3-(4-methylpiperazin-1-yl)-2H-isoquinolin-1-one]	25	–
CN1CCN(c2cc3c(F)cccc3c(=O)[nH]2)CC1 [Example 20, 5-fluoro-3-(4-methylpiperazin-1-yl)-2H-isoquinolin-1-one]	75	238 to 239 °C (dec.)
CN1CCN(c2cc3c(Cl)cccc3c(=O)[nH]2)CC1 [Example 21, 5-chloro-3-(4-methylpiperazin-1-yl)-2H-isoquinolin-1-one]	82	230 to 231 °C (dec.)
CN1CCN(c2cc3c(Br)cccc3c(=O)[nH]2)CC1 [Example 22, 5-bromo-3-(4-methylpiperazin-1-yl)-2H-isoquinolin-1-one]	96	240 to 241 °C (dec.)
Cc1cccc2c(=O)[nH]c(C3CCNCC3)cc12 [Example 93, 3-(piperidin-4-yl)-5-methyl-2H-isoquinolin-1-one hydrochloride]	44	–
CN1CCC(c2[nH]c(=O)c3ccccc3c2-c2ccccc2)CC1 [Example 98, 3-(1-methylpiperidin-4-yl)-4-phenyl-2H-isoquinolin-1-one ⅕ water adduct]	87	258 to 260 °C (dec.)
CN1CCC(c2cc3c(F)cccc3c(=O)[nH]2)CC1 [Example 106, 5-fluoro-3-(1-methylpiperidin-4-yl)-2H-isoquinolin-1-one]	40	220 to 222 °C
COc1cccc2c(=O)[nH]c(C3CCN(C)CC3)cc12 [Example 107, 5-methoxy-3-(1-methylpiperidin-4-yl)-2H-isoquinolin-1-one]	45	239 to 242 °C
Cc1cccc2c(=O)[nH]c(C3CN4CCC3CC4)nc12 (stereo not shown) [Example 138, 2-(1-azabicyclo[2.2.2]octan-3-yl)-8-methyl-3H-quinazolin-4-one]	58	230 to 231 °C (dec.)
Cc1cccc2c(=O)[nH]c(CCCN(C)C)nc12 [Example 145, 8-methyl-2-[3-(dimethylamino)propyl]-3H-quinazolin-4-one]	39	–
Cc1cccc2c(=O)[nH]c(N3CCN(C)C(CO)C3)cc12 (stereo not shown) [Example 153, 3-(3-hydroxymethyl-4-methylpiperazin-1-yl)-5-methyl-2H-isoquinolin-1-one]	36	–
Cc1cccc2c(=O)[nH]c(CCN3CCCCC3)nc12 [Example 165, 8-methyl-2-(2-piperidinoethyl)-3H-quinazolin-4-one]	52	–
Cc1cccc2c(=O)[nH]c(CCCN3CCCC3)nc12 [Example 176, 8-methyl-2-[3-(pyrrolidin-1-yl)propyl]-3H-quinazolin-4-one]	44	–
CN1CCC(c2cc3ccc(Cl)cc3c(=O)[nH]2)CC1 [Example 183, 7-chloro-3-(1-methylpiperidin-4-yl)-2H-isoquinolin-1-one]	44	253 to 255 °C
CN1CCC(C2Cc3c(O)cccc3C(=O)N2)CC1 (stereo not shown) [Example 184, 5-hydroxy-3-(1-methylpiperidin-4-yl)-3,4-dihydro-2H-isoquinolin-1-one]	26	216 to 218 °C
CN(C)CCCCc1cc2c(O)cccc2c(=O)[nH]1.Cl [Example 188, 5-hydroxy-3-(4-dimethylaminobutyl)-2H-isoquinolin-1-one hydrochloride]	57	231 to 233 °C
O=c1[nH]c(N2CCNC(CO)C2)cc2c(Br)cccc12 (stereo not shown) [Example 198, 5-bromo-3-(3-hydroxymethylpiperazin-1-yl)-2H-isoquinolin-1-one]	–	> 230 °C (dec.)
CN1CCN(c2cc3c(Br)cccc3c(=O)[nH]2)CC1CO (stereo not shown) [Example 199, 5-bromo-3-(3-hydroxymethyl-4-methylpiperazin-1-yl)-2H-isoquinolin-1-one]	–	200 to 202 °C
CN1CCN(c2cc3c(F)cccc3c(=O)[nH]2)CC1CO (stereo not shown) [Example 205, 5-fluoro-3-(3-hydroxymethyl-4-methylpiperazin-1-yl)-2H-isoquinolin-1-one]	54	216 to 217 °C
COCOc1ccc2cc(C3CCN(C)CC3)[nH]c(=O)c2c1 [Example 210, 7-methoxymethyloxy-3-(1-methylpiperidin-4-yl)-2H-isoquinolin-1-one]	–	200 to 202 °C
Cc1cccc2c(=O)[nH]c(CCN3CCCCC3)cc12 [Example 218, 5-methyl-3-[2-(piperidin-1-yl)ethyl]-2H-isoquinolin-1-one]	26	–
Cc1cccc2c(=O)[nH]c(CCN3CCCC3)cc12 [Example 221, 5-methyl-3-[2-(pyrrolidin-1-yl)ethyl]-2H-isoquinolin-1-one]	42	–
Cc1cccc2c(=O)[nH]c(CCCN3CCCC3)cc12 [Example 222, 5-methyl-3-[3-(pyrrolidin-1-yl)propyl-1-yl]-2H-isoquinolin-1-one]	36	–
Cc1cccc2c(=O)[nH]c(CCCN3CCCCC3)cc12 [Example 228, 5-methyl-3-[3-(piperidin-1-yl)propyl]-2H-isoquinolin-1-one]	72	–
Cc1cccc2c(=O)[nH]c(C3CCN(C)C3)cc12 (stereo not shown) [Example 248, 5-methyl-3-(1-methylpyrrolidin-3-yl)-2H-isoquinolin-1-one]	68	–
Cc1cccc2c(=O)[nH]c(N3CCN(C)CC3)nc12 [Pfizer, reference compound]	240	–

Reference: patent US20040176361A1, “Fused heterocyclic compound and medicinal use thereof” (priority 2001, published 2004)
